We go through 17 molecules from BindingDB's records for doi:10.1016/j.bioorg.2016.01.004 (University of Karachi, 2016).

Assay [1] has as its target Acetylcholinesterase (Electrophorus electricus, UniProt O42275). The assay is described as follows: AChE and BChE Inhibition Activity. The note with it: pH 8. As to the method: (§1) Inhibitory activities of AChE and BChE were evaluated by using the Ellman's method [34]. […] For initial screening each compound was dissolved in DMSO (end concentration of DMSO was less than 1% in assay) and tested at a final concentration of 0.5 mM. The compounds with considerable inhibition (more than 50%) were subjected to further analysis by making their 8 to 10 serial dilutions in assay buffer (50 mM Tris-HCl, 0.1 M NaCl and 0.02 M MgCl2, pH 8.0). Reaction mixture comprised of 20 µL assay buffer, 10 µL of test compound, 10 µL of 0.031 U/mL of enzyme (0.5 and 3.4 U/mg of AChE or BuChE respectively). This mixture was incubated at 25 °C for 10 min. After this preincubation, enzymatic reaction was started by addition of 10 µL of 1 mM acetylethiocholine iodide or butyrylthiocholine chloride (depending on the enzyme) and the mixture was incubated again for 15 min. The amount of enzymatic product was esti

The target in assay [2] is Carboxylic ester hydrolase (Equus caballus, UniProt Q9N1N9). Kind of assay: AChE and BChE Inhibition Activity. The note with it: pH 8. As for the experimental part:
as §1

Sequence of Carboxylic ester hydrolase (Q9N1N9 whole entry): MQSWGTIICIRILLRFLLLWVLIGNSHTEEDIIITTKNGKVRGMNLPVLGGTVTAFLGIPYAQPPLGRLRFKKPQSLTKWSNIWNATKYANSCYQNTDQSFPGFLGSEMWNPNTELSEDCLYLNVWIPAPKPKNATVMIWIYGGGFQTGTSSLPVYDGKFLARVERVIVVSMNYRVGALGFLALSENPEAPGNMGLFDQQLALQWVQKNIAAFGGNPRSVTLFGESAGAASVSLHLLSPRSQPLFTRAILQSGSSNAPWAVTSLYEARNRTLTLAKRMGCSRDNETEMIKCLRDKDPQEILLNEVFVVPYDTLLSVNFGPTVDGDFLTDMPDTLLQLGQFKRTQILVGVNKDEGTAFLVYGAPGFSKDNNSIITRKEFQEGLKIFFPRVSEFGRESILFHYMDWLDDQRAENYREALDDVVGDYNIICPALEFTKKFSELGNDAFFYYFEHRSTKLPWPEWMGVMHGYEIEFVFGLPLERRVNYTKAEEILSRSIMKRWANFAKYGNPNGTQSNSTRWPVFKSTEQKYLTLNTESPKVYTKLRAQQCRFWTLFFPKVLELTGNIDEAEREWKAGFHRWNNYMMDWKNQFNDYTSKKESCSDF
Sequence of Acetylcholinesterase (O42275 whole entry): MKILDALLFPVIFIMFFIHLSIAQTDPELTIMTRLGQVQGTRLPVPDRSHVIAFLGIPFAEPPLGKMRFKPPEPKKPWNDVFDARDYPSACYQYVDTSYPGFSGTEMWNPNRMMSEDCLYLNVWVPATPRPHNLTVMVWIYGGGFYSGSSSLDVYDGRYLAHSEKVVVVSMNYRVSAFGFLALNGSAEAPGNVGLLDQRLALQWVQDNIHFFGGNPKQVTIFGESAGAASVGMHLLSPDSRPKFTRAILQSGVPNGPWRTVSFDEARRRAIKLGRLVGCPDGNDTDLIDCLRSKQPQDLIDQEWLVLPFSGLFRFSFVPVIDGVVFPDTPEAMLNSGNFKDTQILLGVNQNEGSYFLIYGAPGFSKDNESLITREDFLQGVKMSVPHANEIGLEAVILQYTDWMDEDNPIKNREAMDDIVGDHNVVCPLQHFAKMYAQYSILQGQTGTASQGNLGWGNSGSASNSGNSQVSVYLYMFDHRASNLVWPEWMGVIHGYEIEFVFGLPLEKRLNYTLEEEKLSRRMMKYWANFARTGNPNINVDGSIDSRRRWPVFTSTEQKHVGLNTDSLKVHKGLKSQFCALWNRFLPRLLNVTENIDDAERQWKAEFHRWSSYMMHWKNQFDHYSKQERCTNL

A word on the IC50: it is the concentration that gives 50% inhibition. Read a high IC50 as a need for much substance. `COc1ccccc1C1=C(C#N)C(=C(C#N)c2nnn[nH]2)NC(C)(c2ccccc2OC)C1` (centres undefined) [2-(Cyano(1H-tetrazol-5-yl)methylene)-6-methyl-4,6-bis(2'/2''-methoxyphenyl)-1,2,5,6-tetrahydronicotinonitrile (2g)]: the IC50 is 20.3 µM in assay [1] and 0.29 µM in assay [2].

Turning to `CC1(c2cccc(Cl)c2)CC(c2cccc(Cl)c2)=C(C#N)C(=C(C#N)c2nnn[nH]2)N1` (centres undefined) [2-(Cyano(1H-tetrazol-5-yl)methylene)-6-methyl-4,6-bis(3'/3''-chlorophenyl)-1,2,5,6-tetrahydronicotinonitrile (2e)], the IC50 in assay [1] worked out at 2.32 µM; in assay [2], 2.78 µM.

Take `COc1cccc(C2=C(C#N)C(=C(C#N)c3nnn[nH]3)NC(C)(c3cccc(OC)c3)C2)c1` (centres undefined) [2-(Cyano(1H-tetrazol-5-yl)methylene)-6-methyl-4,6-bis(3'/3''-methoxyphenyl)-1,2,5,6-tetrahydronicotinonitrile (2f)]: the 50% inhibitory concentration (IC50) is 5.11 µM in assay [1] and 39.2 µM in assay [2].

For the molecule `Cc1cccc(C2=C(C#N)C(=C(C#N)c3nnn[nH]3)NC(C)(c3cccc(C)c3)C2)c1` (centres undefined) [2-(Cyano(1H-tetrazol-5-yl)methylene)-6-methyl-4,6-bis(3'/3''-methylphenyl)-1,2,5,6-tetrahydronicotinonitrile (2c)], the IC50 in assay [1] was 20.8 µM; in assay [2], 62.2 µM.

With `CC1(c2ccc(F)cc2)CC(c2ccc(F)cc2)=C(C#N)C(=C(C#N)c2nnn[nH]2)N1` (centres undefined) [2-(Cyano(1H-tetrazol-5-yl)methylene)-6-methyl-4,6-bis(4'/4''-fluorophenyl)-1,2,5,6-tetrahydronicotinonitrile (2d)], the IC50 was determined as 2.01 µM in assay [1] and 38.8 µM in assay [2].

With `CC1(c2ccc(O)cc2)CC(c2ccc(O)cc2)=C(C#N)C(=C(C#N)c2nnn[nH]2)N1` (centres undefined) [2-(Cyano(1H-tetrazol-5-yl)methylene)-6-methyl-4,6-bis(4'/4''-hydroxyphenyl)-1,2,5,6-tetrahydronicotinonitrile (2h)], the IC50 in assay [1] stood at 7.42 µM; in assay [2] it was 2.45 µM.

For `Cc1ccc(C2=C(C#N)C(=C(C#N)c3nnn[nH]3)NC(C)(c3ccc(C)cc3)C2)cc1` (centres undefined) [2-(Cyano(1H-tetrazol-5-yl)methylene)-6-methyl-4,6-bis(4'/4''-methylphenyl)-1,2,5,6-tetrahydronicotinonitrile (2b)], the IC50 in assay [1] was found to be 4.45 µM; in assay [2], 5.87 µM.

Consider `CC1(c2ccccc2)CC(c2ccccc2)=C(C#N)C(=C(C#N)c2nnn[nH]2)N1` (centres undefined) [2-(Cyano(1H-tetrazol-5-yl)methylene)-6-methyl-4,6-bis(phenyl)-1,2,5,6-tetrahydronicotinonitrile (2a)], for which the IC50 is 7.02 µM in assay [1] and 22.1 µM in assay [2].

Regarding `CC1(c2ccccc2)CC(c2ccccc2)=C(C#N)C(=C(C#N)C#N)N1` (centres undefined) [2-Dicyanomethylene-6-methyl-4,6-bis(phenyl)-1,2,5,6-tetrahydronicotinonitrile (5a)], the IC50 in assay [1] was 20.3 µM; in assay [2], 48.1 µM.

In the case of `CC1(c2cccc(F)c2)CC(c2cccc(F)c2)=C(C#N)C(=C(C#N)C#N)N1` (centres undefined) [2-[3-cyano-4,6-bis(3-fluorophenyl)-6-methyl-1,2,5,6-tetrahydropyridin-2-ylidene]propanedinitrile (5f)], the IC50 in assay [1] came to 8.01 µM; in assay [2], 68.8 µM.

With `COc1cccc(C2=C(C#N)C(=C(C#N)C#N)NC(C)(c3cccc(OC)c3)C2)c1` (centres undefined) [2-[3-cyano-4,6-bis(3-methoxyphenyl)-6-methyl-1,2,5,6-tetrahydropyridin-2-ylidene]propanedinitrile (5g)], the IC50 in assay [1] came out at 1.56 µM; in assay [2], 48.2 µM.

Turning to `CC1(c2ccc(F)cc2)CC(c2ccc(F)cc2)=C(C#N)C(=C(C#N)C#N)N1` (centres undefined) [2-[3-cyano-4,6-bis(4-fluorophenyl)-6-methyl-1,2,5,6-tetrahydropyridin-2-ylidene]propanedinitrile (5d)], the IC50 in assay [1] was 11.9 µM; in assay [2] it was 55.2 µM.

Turning to `CC1(c2ccc(O)cc2)CC(c2ccc(O)cc2)=C(C#N)C(=C(C#N)C#N)N1` (centres undefined) [2-[3-cyano-4,6-bis(4-hydroxyphenyl)-6-methyl-1,2,5,6-tetrahydropyridin-2-ylidene]propanedinitrile (5h)], the IC50 in assay [1] was found to be 5.38 µM; in assay [2] it was 42.2 µM.

Take `CC1(c2ccc(I)cc2)CC(c2ccc(I)cc2)=C(C#N)C(=C(C#N)C#N)N1` (centres undefined) [2-[3-cyano-4,6-bis(4-iodophenyl)-6-methyl-1,2,5,6-tetrahydropyridin-2-ylidene]propanedinitrile (5e)]: the IC50 worked out at 11.2 µM in assay [1] and 45.3 µM in assay [2].

For `Cc1cccc(C2=C(C#N)C(=C(C#N)C#N)NC(C)(c3cccc(C)c3)C2)c1` (centres undefined) [2-[3-cyano-6-methyl-4,6-bis(3-methylphenyl)-1,2,5,6-tetrahydropyridin-2-ylidene]propanedinitrile (5c)], the half-maximal inhibitory concentration (IC50) in assay [1] was found to be 5.21 µM; in assay [2], 35.9 µM.

As for `Cc1ccc(C2=C(C#N)C(=C(C#N)C#N)NC(C)(c3ccc(C)cc3)C2)cc1` (centres undefined) [2-[3-cyano-6-methyl-4,6-bis(4-methylphenyl)-1,2,5,6-tetrahydropyridin-2-ylidene]propanedinitrile (5b)], the IC50 in assay [1] is 16.9 µM; in assay [2] it was 36.5 µM.

Regarding `CN(C)C(=O)Oc1cccc([N+](C)(C)C)c1` [m-Trimethylammoniumphenyldimethylcarbamate], the IC50 was 19.3 µM in assay [1] and 43.2 µM in assay [2].
